Experimental data taken from PubChem BioAssay AID248 (DTP/NCI, 2004).
Where “and” joins values, the source holds several entries; their conditions need not be identical. Equal values may be shown once. Toxic doses and inconclusive results are not listed. No stated cut-off is given here; in the data, active means T/C of 150% or more; inactive means T/C below 125%.

Tested on: L1210 leukemia ip in BDF1 mice, survival T/C
Experiment: NCI In Vivo Anticancer Drug Screen. Data for tumor model L1210 Leukemia (intraperitoneal) in B6D2F1 (BDF1) mice
Conditions: higher = longer survival
Method in brief: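 Each compound was tested against a transplantable tumor grown in mice. The endpoint was survival, with treated animals benchmarked against vehicle controls as a simple ratio.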

[1] = endpoint: mean survival time, dose: 100.0 mg/kg/injection, schedule: Q01DX001 (ip), vehicle: carboxymethylcellulose (CMC)
[2] = endpoint: mean survival time, dose: 200.0 mg/kg/injection, schedule: Q01DX001 (ip), vehicle: carboxymethylcellulose (CMC)
[3] = endpoint: mean survival time, dose: 400.0 mg/kg/injection, schedule: Q01DX001 (ip), vehicle: carboxymethylcellulose (CMC)
[4] = endpoint: mean survival time, dose: 100.0 mg/kg/injection, schedule: Q04DX003 (ip), vehicle: Klucel (hydroxypropylcellulose) (HPC)
[5] = endpoint: mean survival time, dose: 200.0 mg/kg/injection, schedule: Q04DX003 (ip), vehicle: Klucel (hydroxypropylcellulose) (HPC)
[6] = endpoint: mean survival time, dose: 400.0 mg/kg/injection, schedule: Q04DX003 (ip), vehicle: Klucel (hydroxypropylcellulose) (HPC)
[7] = endpoint: mean survival time, dose: 100.0 mg/kg/injection, schedule: Q01DX009 (ip), vehicle: Klucel (hydroxypropylcellulose) (HPC)
[8] = endpoint: mean survival time, dose: 50.0 mg/kg/injection, schedule: Q01DX001 (ip), vehicle: saline
[9] = endpoint: mean survival time, dose: 100.0 mg/kg/injection, schedule: Q01DX001 (ip), vehicle: saline
[10] = endpoint: mean survival time, dose: 200.0 mg/kg/injection, schedule: Q01DX001 (ip), vehicle: saline
[11] = endpoint: mean survival time, dose: 20.0 mg/kg/injection, schedule: Q01DX001 (ip), vehicle: saline
[12] = endpoint: mean survival time, dose: 400.0 mg/kg/injection, schedule: Q01DX001 (ip), vehicle: saline with Tween-80

Measured: T/C

CC(=O)c1cccc(NC2C(N)C(NC(=O)N(C)C)(C(C)O)C(C)(O)C2(O)COC(=O)c2c(C)cccc2O)c1 (stereo unspecified)
inactive: endpoint: mean survival time, dose: 0.25 mg/kg/injection, schedule: Q01DX Z (ip), vehicle: saline 98 % of control | endpoint: mean survival time, dose: 0.5 mg/kg/injection, schedule: Q01DX Z (ip), vehicle: saline 98 % of control | endpoint: mean survival time, dose: 0.7 mg/kg/injection, schedule: Q01DX015 (ip), vehicle: carboxymethylcellulose (CMC) 111 % of control | endpoint: mean survival time, dose: 1.0 mg/kg/injection, schedule: Q01DX Z (ip), vehicle: saline 113 % of control | endpoint: mean survival time, dose: 1.5 mg/kg/injection, schedule: Q01DX015 (ip), vehicle: carboxymethylcellulose (CMC) 122 % of control | endpoint: mean survival time, dose: 2.0 mg/kg/injection, schedule: Q01DX Z (ip), vehicle: saline 117 % of control | endpoint: mean survival time, dose: 3.0 mg/kg/injection, schedule: Q01DX001 (ip), vehicle: carboxymethylcellulose (CMC) 104 % of control | endpoint: mean survival time, dose: 3.0 mg/kg/injection, schedule: Q01DX015 (ip), vehicle: carboxymethylcellulose (CMC) 90 % of control | endpoint: mean survival time, dose: 6.0 mg/kg/injection, schedule: Q01DX001 (ip), vehicle: carboxymethylcellulose (CMC) 107 % of control | endpoint: mean survival time, dose: 12.0 mg/kg/injection, schedule: Q01DX001 (ip), vehicle: carboxymethylcellulose (CMC) 107 % of control | endpoint: mean survival time, dose: 25.0 mg/kg/injection, schedule: Q01DX001 (ip), vehicle: carboxymethylcellulose (CMC) 112 % of control | endpoint: mean survival time, dose: 50.0 mg/kg/injection, schedule: Q01DX001 (ip), vehicle: carboxymethylcellulose (CMC) 112 % of control | [1] 114 % of control | endpoint: median survival time, dose: 2.0 mg/kg/injection, schedule: Q04DX003 (ip), vehicle: acid diluted with saline 103 % of control | endpoint: median survival time, dose: 4.0 mg/kg/injection, schedule: Q04DX003 (ip), vehicle: acid diluted with saline 103 % of control | endpoint: median survival time, dose: 8.0 mg/kg/injection, schedule: Q04DX003 (ip), vehicle: acid diluted with saline 103 % of control | endpoint: median survival time, dose: 16.0 mg/kg/injection, schedule: Q04DX003 (ip), vehicle: acid diluted with saline 112 % of control

O[Si](O)([O][Sn]([c]1ccccc1)([c]1ccccc1)[c]1ccccc1)[O][Sn]([c]1ccccc1)([c]1ccccc1)[c]1ccccc1
inactive: endpoint: mean survival time, dose: 25.0 mg/kg/injection, schedule: Q01DX009 (ip), vehicle: saline with Tween-80 106 % of control | endpoint: mean survival time, dose: 50.0 mg/kg/injection, schedule: Q01DX009 (ip), vehicle: saline 96 % of control

CCCCCCCCCCOc1ccc(C2=C(c3ccccc3)C(=O)C(c3ccccc3)=C2c2ccccc2)cc1
inactive: [1] 100 % of control | [2] 105 % of control | [3] 94 % of control

Cc1sc(Cc2ccccc2)nc1-c1ccc(N=Cc2ccc(N(CCCl)CCCl)cc2)cc1
inactive: [1] 104 % of control | [2] 98 % of control | [3] 95 % of control

Clc1nc(Nc2ccccc2)nc(Nc2ccccc2)n1
inactive: [4] 96 % of control | [5] 93 % of control | [6] 95 % of control

S=C1NCCCS1
inactive: endpoint: mean survival time, dose: 12.5 mg/kg/injection, schedule: Q01DX009 (ip), vehicle: Klucel (hydroxypropylcellulose) (HPC) 93 % of control | endpoint: mean survival time, dose: 25.0 mg/kg/injection, schedule: Q01DX009 (ip), vehicle: Klucel (hydroxypropylcellulose) (HPC) 104 % of control | endpoint: mean survival time, dose: 50.0 mg/kg/injection, schedule: Q01DX009 (ip), vehicle: Klucel (hydroxypropylcellulose) (HPC) 98 % of control | [7] 101 % of control | [4] 98 % of control | [5] 95 % of control | [6] 104 % of control

NNc1ncccc1[N+](=O)[O-]
inactive: [8] 102 % of control | [9] 108 % of control | [10] 96 % of control

Clc1ccc(C[As+](c2ccccc2)(c2ccccc2)c2ccccc2)cc1
inactive: [11] 97 % of control

COc1cccc(/C(=C/c2ccc([N+](=O)[O-])cc2)C(=O)Nc2ccc(S(=O)(=O)F)cc2)c1
inactive: [7] 101 % of control | endpoint: mean survival time, dose: 200.0 mg/kg/injection, schedule: Q01DX009 (ip), vehicle: Klucel (hydroxypropylcellulose) (HPC) 90 % of control | endpoint: mean survival time, dose: 400.0 mg/kg/injection, schedule: Q01DX009 (ip), vehicle: Klucel (hydroxypropylcellulose) (HPC) 90 % of control

O=C(NCc1ccccc1Cl)Nc1ccc(F)cc1
inactive: [1] 92 % of control | endpoint: mean survival time, dose: 100.0 mg/kg/injection, schedule: Q01DX009 (ip), vehicle: carboxymethylcellulose (CMC) 92 % of control and 93 % of control | endpoint: mean survival time, dose: 100.0 mg/kg/injection, schedule: Q04DX002 (ip), vehicle: carboxymethylcellulose (CMC) 95 % of control (2×) and 97 % of control | endpoint: mean survival time, dose: 100.0 mg/kg/injection, schedule: Q04DX003 (ip), vehicle: carboxymethylcellulose (CMC) 95 % of control | [2] 96 % of control | endpoint: mean survival time, dose: 200.0 mg/kg/injection, schedule: Q01DX009 (ip), vehicle: carboxymethylcellulose (CMC) 101 % of control | endpoint: mean survival time, dose: 200.0 mg/kg/injection, schedule: Q04DX002 (ip), vehicle: carboxymethylcellulose (CMC) 94 % of control and 96 % of control and 88 % of control | endpoint: mean survival time, dose: 200.0 mg/kg/injection, schedule: Q04DX003 (ip), vehicle: carboxymethylcellulose (CMC) 96 % of control | [3] 87 % of control | endpoint: mean survival time, dose: 400.0 mg/kg/injection, schedule: Q01DX009 (ip), vehicle: carboxymethylcellulose (CMC) 92 % of control and 88 % of control | endpoint: mean survival time, dose: 400.0 mg/kg/injection, schedule: Q04DX002 (ip), vehicle: carboxymethylcellulose (CMC) 93 % of control | endpoint: mean survival time, dose: 400.0 mg/kg/injection, schedule: Q04DX003 (ip), vehicle: carboxymethylcellulose (CMC) 91 % of control

O=C1C2C3SC(c4nc5ccccc5cc43)C2C(=O)N1c1ccccc1 (stereo unspecified)
inactive: [12] 91 % of control

CCCCCCOc1ccc(C(=N)N(CCCC)CCCC)c2ccccc12
inactive: endpoint: mean survival time, dose: 5.0 mg/kg/injection, schedule: Q01DX001 (ip), vehicle: saline 97 % of control | endpoint: mean survival time, dose: 10.0 mg/kg/injection, schedule: Q01DX001 (ip), vehicle: saline 97 % of control | [11] 89 % of control

CCOC(=O)/C(Cc1n[n+]([O-])ccc1Cl)=N\N
inactive: endpoint: mean survival time, dose: 43.75 mg/kg/injection, schedule: Q04DX002 (ip), vehicle: Klucel (hydroxypropylcellulose) (HPC) 116 % of control | endpoint: mean survival time, dose: 87.5 mg/kg/injection, schedule: Q04DX002 (ip), vehicle: Klucel (hydroxypropylcellulose) (HPC) 101 % of control | endpoint: mean survival time, dose: 175.0 mg/kg/injection, schedule: Q04DX002 (ip), vehicle: Klucel (hydroxypropylcellulose) (HPC) 96 % of control

CC(N)C(=O)NC(C)C(=O)O (stereo unspecified)
inactive: endpoint: mean survival time, dose: 25.0 mg/kg/injection, schedule: Q01DX001 (ip), vehicle: Klucel (hydroxypropylcellulose) (HPC) 97 % of control | endpoint: mean survival time, dose: 25.0 mg/kg/injection, schedule: Q01DX001 (ip), vehicle: saline 102 % of control | endpoint: mean survival time, dose: 25.0 mg/kg/injection, schedule: Q04DX002 (ip), vehicle: saline 102 % of control | endpoint: mean survival time, dose: 50.0 mg/kg/injection, schedule: Q01DX001 (ip), vehicle: Klucel (hydroxypropylcellulose) (HPC) 97 % of control | [8] 97 % of control | endpoint: mean survival time, dose: 50.0 mg/kg/injection, schedule: Q04DX002 (ip), vehicle: saline 96 % of control | endpoint: mean survival time, dose: 100.0 mg/kg/injection, schedule: Q01DX001 (ip), vehicle: Klucel (hydroxypropylcellulose) (HPC) 97 % of control | [9] 93 % of control | endpoint: mean survival time, dose: 100.0 mg/kg/injection, schedule: Q04DX002 (ip), vehicle: saline 102 % of control

Cc1cc2nc3c(nc2cc1C)C1CC(Br)CCC1N3 (stereo unspecified)
inactive: [9] 97 % of control | [10] 95 % of control | endpoint: mean survival time, dose: 400.0 mg/kg/injection, schedule: Q01DX001 (ip), vehicle: saline 91 % of control

Nc1cc2ccccc2c(Br)n1
inactive: endpoint: mean survival time, dose: 100.0 mg/kg/injection, schedule: Q01DX001 (ip), vehicle: saline with Tween-80 110 % of control | endpoint: mean survival time, dose: 100.0 mg/kg/injection, schedule: Q01DX009 (ip), vehicle: saline sonified 98 % of control | endpoint: mean survival time, dose: 200.0 mg/kg/injection, schedule: Q01DX001 (ip), vehicle: saline with Tween-80 105 % of control | endpoint: mean survival time, dose: 200.0 mg/kg/injection, schedule: Q01DX009 (ip), vehicle: saline sonified 93 % of control | [12] 100 % of control | endpoint: mean survival time, dose: 400.0 mg/kg/injection, schedule: Q01DX009 (ip), vehicle: saline sonified 98 % of control

COc1cc(C(=O)c2ccccc2C(=O)O)c(OC)c2c1CCCC2
inactive: [1] 91 % of control | [2] 92 % of control | [3] 96 % of control

C=C1C(=O)OCC1C(=O)O (stereo unspecified)
inactive: endpoint: mean survival time, dose: 75.0 mg/kg/injection, schedule: Q01DX001 (ip), vehicle: saline 98 % of control

CSC1=NCCN1
inactive: endpoint: mean survival time, dose: 100.0 mg/kg/injection, schedule: Q01DX009 (ip), vehicle: saline 104 % of control | endpoint: mean survival time, dose: 200.0 mg/kg/injection, schedule: Q01DX009 (ip), vehicle: saline 100 % of control | endpoint: mean survival time, dose: 400.0 mg/kg/injection, schedule: Q01DX009 (ip), vehicle: saline 104 % of control
